Measured values: patent US10501421B1, “Substituted benzimidazoles as modulators of Ras signaling” (VANDERBILT UNIVERSITY, priority 2017, dated 2019)
Where a name gives a salt, the structure may show the parent alone.

Columns and labels:
[1] = target: T1, Son of Sevenless (SOS) (Homo sapiens, UniProt Q07889); experiment: Binding to SOS, fluorescence polarization anisotropy (FPA) probe displacement; settings: displacement of FITC-conjugated probe (Example 285), affinity calculated from IC50
T1 sequence (Q07889 564-1049 limits assumed): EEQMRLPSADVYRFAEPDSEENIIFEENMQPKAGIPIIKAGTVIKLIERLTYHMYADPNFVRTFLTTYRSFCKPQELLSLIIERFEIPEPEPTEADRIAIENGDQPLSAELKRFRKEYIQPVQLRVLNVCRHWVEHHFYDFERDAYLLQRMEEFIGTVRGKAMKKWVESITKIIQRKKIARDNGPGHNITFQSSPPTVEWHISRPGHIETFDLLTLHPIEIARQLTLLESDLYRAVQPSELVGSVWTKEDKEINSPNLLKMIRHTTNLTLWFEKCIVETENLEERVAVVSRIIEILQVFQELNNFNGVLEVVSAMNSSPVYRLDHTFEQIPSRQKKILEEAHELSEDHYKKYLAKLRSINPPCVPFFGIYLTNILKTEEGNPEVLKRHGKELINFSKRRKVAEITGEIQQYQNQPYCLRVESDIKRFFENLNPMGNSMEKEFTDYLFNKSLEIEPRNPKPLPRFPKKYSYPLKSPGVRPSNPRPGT
Protocol: Compounds of the present invention were tested for their ability to bind to the Ras guanine exchange factor (GEF) Son of Sevenless (SOS). Binding to SOS was measured using a Fluorescence polarization anisotropy (FPA) assay that assesses the ability of a test compound to displace a fluorescent FITC-conjugated compound (Example 285). Briefly, the labeled probe compound is incubated with SOS in buffer. Changes in anisotropy indicative of displacement of the labeled probe for a test compound are assessed over a dose range of test compound. Data was analyzed by plotting fluorescence anisotropy values as a function of compound concentration. IC50 values were determined using a four-parameter dose-response (variable slope) and binding affinities were calculated from this IC50 value. This assay is performed in a method analogous to the assay disclosed in: Burns, M. C.; Sun, Q.; Daniels, R. N.; Camper, D. V.; Kennedy, J. P.; Phan, J.; Olejniczak, E. O.; Lee, T.; Waterson, A. G.; Rossanese, O. W.; Fesik, S. W. “Approach for targeting Ras with small molecules that activate SOS-mediated nucleotide exchange” Proc. Natl. Acad. Sci. 2014; 11(9): 3401-3406. PMCID: PMC3948241.

[2] = target: Ras GEF SOS (Son of Sevenless) (Homo sapiens, UniProt Q07889); experiment: SOS-mediated nucleotide exchange on Ras (BODIPY-GDP fluorescence); assay type: biochemical; settings: SOS-mediated exchange of BODIPY-GDP for GTP on Ras
Ras GEF SOS (Son of Sevenless), sequence (P01112 1-166 partner limits assumed, one chain of several): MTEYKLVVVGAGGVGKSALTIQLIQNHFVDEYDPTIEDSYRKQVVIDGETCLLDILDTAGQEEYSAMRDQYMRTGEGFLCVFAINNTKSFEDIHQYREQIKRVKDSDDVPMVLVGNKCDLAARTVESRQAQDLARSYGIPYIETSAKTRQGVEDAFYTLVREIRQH
Outline: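 Exchange rates were taken from single-exponential fits of the fluorescence time course as BODIPY-GDP on Ras was replaced by GTP. Compound went in first, then GTP and SOS. Mean rates plotted against concentration gave EC50 by four-parameter dose-response fitting.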

`Cc1cc2nc(N3CCNCC3)n(Cc3cc(Cl)c(F)c(Cl)c3)c2cc1C` [Example 277, 1-[(3,5-dichloro-4-fluorophenyl)methyl]-5,6-dimethyl-2-piperazin-1-ylbenzimidazole] was tested, and the Ki [1] was over 5 µM and the EC50 [2] was 1 to 5 µM.
Work on `COCCN1CCN(c2cc(C)cc3c2nc(N2CCNCC2)n3Cc2cc(C)c(F)c(C)c2)CC1` [Example 195, 1-(4-fluoro-3,5-dimethylbenzyl)-4-(4-(2-methoxyethyl)piperazin-1-yl)-6-methyl-2-(piperazin-1-yl)-1H-benzo[d]imidazole trifluoroacetate] yielded a Ki [1] of 0.5 to 1 µM and an EC50 [2] of 1 to 5 µM.
For `Cc1cc(Cn2c(NCCN)nc3c(N4CCNCC4)cc(Cl)cc32)cc(C)c1F` [Example 299, N^1-(6-chloro-1-(4-fluoro-3,5-dimethylbenzyl)-4-(piperazin-1-yl)-1H-benzo[d]imidazol-2-yl)ethane-1,2-diamine], the Ki [1] was under 0.5 µM and the EC50 [2] was under 1 µM.
`Cc1cc2nc(N3CCNCC3)n(Cc3ccc(F)c(C(F)(F)F)c3)c2cc1C` [Example 40, 1-(4-fluoro-3-(trifluoromethyl)benzyl)-5,6-dimethyl-2-(piperazin-1-yl)-1H-benzo[d]imidazole trifluoracetate] showed a Ki [1] of over 5 µM and an EC50 [2] of 5 to 30 µM.
`Cc1cc(CO)c2nc(N3CCNCC3)n(Cc3cc(C)c(F)c(C)c3)c2c1` [Example 280, [1-[(4-fluoro-3,5-dimethylphenyl)methyl]-6-methyl-2-piperazin-1-ylbenzimidazol-4-yl]methanol] showed a Ki [1] of 1 to 5 µM and an EC50 [2] of under 1 µM.
`Cc1cc2nc(N[C@H]3C[C@@H](N)C3)n(Cc3ccc(F)c(Cl)c3)c2cc1C` [Example 292, (1s,3s)-N^1-(1-(3-chloro-4-fluorobenzyl)-5,6-dimethyl-1H-benzo[d]imidazol-2-yl)cyclobutane-1,3-diamine] showed a Ki [1] of 1 to 5 µM and an EC50 [2] of 1 to 5 µM.
Work on `Cc1cc2nc(NCCN)n(Cc3cccc(C(F)(F)F)c3)c2cc1C` [Example 33, N^1-(5,6-dimethyl-1-(3-(trifluoromethyl)benzyl)-1H-benzo[d]imidazol-2-yl)ethane-1,2-diamine trifluoroacetate] yielded a Ki [1] of over 5 µM and an EC50 [2] of 1 to 5 µM.
`Cc1ccccc1C#Cc1ccccc1-c1cc(Cl)cc2c1nc(N1CCNCC1)n2Cc1cc(C)c(F)c(C)c1` [Example 185, 6-chloro-1-(4-fluoro-3,5-dimethylbenzyl)-2-(piperazin-1-yl)-4-(2-(o-tolylethynyl)phenyl)-1H-benzo[d]imidazole trifluoroacetate] gave a Ki [1] of over 5 µM and an EC50 [2] of 5 to 30 µM.
`CC(C)N1CC[C@@H](C(=O)c2ccccc2)[C@@H]1c1cc(Cl)cc2c1nc(N1CCNCC1)n2Cc1ccc(F)c(Cl)c1` [Example 153, ((2R,3R)-2-(6-chloro-1-(3-chloro-4-fluorobenzyl)-2-(piperazin-1-yl)-1H-benzo[d]imidazol-4-yl)-1-isopropylpyrrolidin-3-yl)(phenyl)methanone trifluoroacetate] gave a Ki [1] of over 5 µM and an EC50 [2] of 5 to 30 µM.
In the case of `Cc1cc2c(nc(N3CCNCC3)n2Cc2ccc(F)c(C)c2)c(CNCCC(C)C)n1` [Example 234, N-((1-(4-fluoro-3-methylbenzyl)-6-methyl-2-(piperazin-1-yl)-1H-imidazo[4,5-c]pyridin-4-yl)methyl)-3-methylbutan-1-amine], the Ki [1] is reported as over 5 µM and the EC50 [2] is reported as 5 to 30 µM.
Compound `CN(CCO)Cc1cc(Cl)cc2c1nc(N1CCNCC1)n2Cc1ccc(F)c(Cl)c1` [Example 134, 2-(((6-chloro-1-(3-chloro-4-fluorobenzyl)-2-(piperazin-1-yl)-1H-benzo[d]imidazol-4-yl)methyl)(methyl)amino)ethan-1-ol trifluoroacetate] has a Ki [1] of 0.5 to 1 µM and an EC50 [2] of under 1 µM.
Work on `Cc1cc2nc(N3CCNCC3)n(Cc3cc(F)cc(F)c3)c2cc1C` [Example 18, 1-(3,5-difluorobenzyl)-5,6-dimethyl-2-(piperazin-1-yl)-1H-benzo[d]imidazole trifluoroacetate] yielded a Ki [1] of over 5 µM and an EC50 [2] of 5 to 30 µM.
Work on `Cc1cc(Cn2c(N3CCNCC3)nc3c(-c4ccccc4Cl)cc(Cl)cc32)cc(C)c1F` [Example 307, 6-chloro-4-(2-chlorophenyl)-1-(4-fluoro-3,5-dimethylbenzyl)-2-(piperazin-1-yl)-1H-benzo[d]imidazole] yielded a Ki [1] of under 0.5 µM and an EC50 [2] of 1 to 5 µM.
Work on `CC(C)CN1CC[C@@H](C(=O)c2ccccc2)[C@@H]1c1cc(Cl)cc2c1nc(N1CCNCC1)n2Cc1ccc(F)c(Cl)c1` [Example 151, ((2R,3R)-2-(6-chloro-1-(3-chloro-4-fluorobenzyl)-2-(piperazin-1-yl)-1H-benzo[d]imidazol-4-yl)-1-isobutylpyrrolidin-3-yl)(phenyl)methanone trifluoroacetate] yielded a Ki [1] of over 5 µM and an EC50 [2] of 5 to 30 µM.
With `CNCCN(C)c1nc2cc(C)c(C)cc2n1Cc1cc(C)c(F)c(C)c1` [Example 45, N^1-(1-(4-fluoro-3,5-dimethylbenzyl)-5,6-dimethyl-1H-benzo[d]imidazol-2-yl)-N^1,N^2-dimethylethane-1,2-diamine trifluoroacetate] the Ki [1] was over 5 µM and the EC50 [2] was 5 to 30 µM.
`Cc1cc(OC2CCOC2)c2nc(N3CCNCC3)n(Cc3cc(C)c(F)c(C)c3)c2c1` (stereo not shown) [Example 204, 1-(4-fluoro-3,5-dimethylbenzyl)-6-methyl-2-(piperazin-1-yl)-4-((tetrahydrofuran-3-yl)oxy)-1H-benzo[d]imidazole] was tested, and the Ki [1] was 1 to 5 µM and the EC50 [2] was under 1 µM.
`Cc1cnc2nc(NCCN)n(Cc3ccc(F)c(C)c3)c2c1` [Example 245, N^1-(1-(4-fluoro-3-methylbenzyl)-6-methyl-1H-imidazo[4,5-b]pyridin-2-yl)ethane-1,2-diamine] was tested, and the Ki [1] was over 5 µM and the EC50 [2] was 1 to 5 µM.
Compound `NCCNc1nc2ccc(Cl)cc2n1Cc1ccc(F)c(Cl)c1` [Example 74, N^1-(6-chloro-1-(3-chloro-4-fluorobenzyl)-1H-benzo[d]imidazol-2-yl)ethane-1,2-diamine trifluoroacetate] has a Ki [1] of 0.5 to 1 µM and an EC50 [2] of under 1 µM.
In the case of `Cc1cc(OC2CCNC2)c2nc(N3CCNCC3)n(Cc3cc(C)c(F)c(C)c3)c2c1` (stereo not shown) [Example 327, 1-(4-fluoro-3,5-dimethylbenzyl)-6-methyl-2-(piperazin-1-yl)-4-(pyrrolidin-3-yloxy)-1H-benzo[d]imidazole], the Ki [1] is reported as 0.5 to 1 µM and the EC50 [2] is reported as under 1 µM.
Work on `C=Cc1cc2c(cc1C)nc(NCCN)n2Cc1ccc(F)c(Cl)c1` [Example 65, N^1-(1-(3-chloro-4-fluorobenzyl)-5-methyl-6-vinyl-1H-benzo[d]imidazol-2-yl)ethane-1,2-diamine trifluoroacetate] yielded a Ki [1] of 1 to 5 µM and an EC50 [2] of 1 to 5 µM.
`Cc1cc2c(nc(N3CCNCC3)n2Cc2ccc(Cl)cc2)c(-c2ccccc2)c1C` [Example 105, 1-(4-chlorobenzyl)-5,6-dimethyl-4-phenyl-2-(piperazin-1-yl)-1H-benzo[d]imidazole trifluoroacetate] showed a Ki [1] of over 5 µM and an EC50 [2] of 1 to 5 µM.
`Cc1cc(Cn2c(N3CCNCC3)nc3c(-c4ccnn4-c4ccc(C(C)(C)C)cc4)cc(Cl)cc32)cc(C)c1F` [Example 178, 4-(1-(4-(tert-butyl)phenyl)-1H-pyrazol-5-yl)-6-chloro-1-(4-fluoro-3,5-dimethylbenzyl)-2-(piperazin-1-yl)-1H-benzo[d]imidazole trifluoroacetate] gave a Ki [1] of over 5 µM and an EC50 [2] of 5 to 30 µM.
`Fc1ccc(Cn2c(N3CCNCC3)nc3c(-c4cccnc4OCc4ccccc4)cccc32)cc1Cl` [Example 266, 1-[(3-chloro-4-fluorophenyl)methyl]-4-(2-phenylmethoxypyridin-3-yl)-2-piperazin-1-ylbenzimidazole] was tested, and the Ki [1] was over 5 µM and the EC50 [2] was 5 to 30 µM.
